# Experimental data reported in patent US8106063B2, “Pyrimidyl sulphone amide derivatives as chemokine receptor modulators” (AstraZeneca AB, priority 2002, dated 2012).
# Molecular target: T1, hrCXCR2 (Homo sapiens, UniProt P25025)
# T1 construct: expressed in transfected cells; host or cells: HEK 293 cells (ECACC No. 85120602), membranes of the highest expressing clone
# T1 sequence (P25025 1-360): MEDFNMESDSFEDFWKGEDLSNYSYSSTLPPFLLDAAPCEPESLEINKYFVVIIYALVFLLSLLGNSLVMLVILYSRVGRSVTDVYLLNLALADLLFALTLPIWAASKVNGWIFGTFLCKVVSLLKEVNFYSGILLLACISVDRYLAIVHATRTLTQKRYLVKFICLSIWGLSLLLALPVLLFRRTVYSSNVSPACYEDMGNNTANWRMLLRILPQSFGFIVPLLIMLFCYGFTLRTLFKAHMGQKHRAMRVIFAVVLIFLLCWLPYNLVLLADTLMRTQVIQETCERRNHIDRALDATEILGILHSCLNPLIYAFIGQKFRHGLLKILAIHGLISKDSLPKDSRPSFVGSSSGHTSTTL
# Assay: Ligand binding assay ([125I]IL-8 binding to hrCXCR2 membranes)
# Conditions: ~50 pM [125I]IL-8, membranes of HEK 293 cells expressing hrCXCR2, 1.5 hours at room temperature
structure (smiles),measurement,value
"Cc1cccc(CSc2nc(NC(C)(C)CO)cc(NS(C)(=O)=O)n2)c1F [Example 116, N-{2-[(2-Fluoro-3-methylbenzyl)thio]-6-[(2-hydroxy-1,1-dimethylethyl)amino]-pyrimidin-4-yl}methanesulfonamide]",IC50,0.158 µM
